According to paper PMC11954145, “Antimicrobial and ADME properties of methoxylated, methylated and nitrated 2-hydroxynaphthalene-1 carboxanilides” (ADMET & DMPK, 2025):
In brackets after ≈: the same amount, converted by molar mass. Like-named read-outs stand apart in the source and are kept apart here.

What was measured:
[1] = system: Mycobacterium kansasii DSM 44162; set-up: method as in PMID 23924993; conditions: previously published monosubstituted derivatives; cited from earlier work
[2] = system: Mycobacterium kansasii DSM 44162; assay: Antimycobacterial screening, broth dilution MIC; type: cell-based; conditions: DSM44162, 336 h, read-out: MIC M. kansasii
[3] = system: Enterococcus faecalis ATCC 29212; assay: Antibacterial screening, broth microdilution MIC; type: cell-based; conditions: read-out: MIC E. faecalis
MRSA SA 630 = assay: Antibacterial screening, broth microdilution MIC; type: cell-based, methicillin-resistant S. aureus; conditions: Staphylococcus aureus, read-out: MIC MRSA SA 630
[4] = system: Mycobacterium tuberculosis ATCC 25177/H37Ra; assay: Antimycobacterial screening, broth dilution MIC (Alamar blue); type: cell-based; conditions: 336 h, H37Ra, 14 days at 37 °C, Alamar blue, read-out: MIC M. tuberculosis
How it was run: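 Broth microdilution in Middlebrook 7H9 with ADC, compounds twofold from 256 to 0.125 μg mL^-1, 1.5×10^6 M. tuberculosis cells per well, 14 days at 37 °C. Alamar blue was then added for 24 h. MIC is the lowest concentration preventing blue resazurin turning pink resorufin; three repeats.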

VRE 368 = assay: Antibacterial screening, broth microdilution MIC; type: cell-based, vancomycin-resistant E. faecalis; conditions: Enterococcus, read-out: MIC VRE 368
E. coli ATCC 25922 = assay: Antibacterial screening, broth microdilution MIC; type: cell-based; conditions: Escherichia coli, ATCC25922; ATCC 25922, 24 h at 37 °C
VRE 342B = assay: Antibacterial screening, broth microdilution MIC; type: cell-based, vancomycin-resistant E. faecalis; conditions: Enterococcus, vanA isolate, 24 h at 37 °C, read-out: MIC VRE 342B
MRSA SA 3202 = assay: Antibacterial screening, broth microdilution MIC; type: cell-based, methicillin-resistant S. aureus; conditions: Staphylococcus aureus, clinical isolate, 24 h at 37 °C, read-out: MIC MRSA SA 3202
MRSA 63718 [5] = assay: Antibacterial screening, broth microdilution MIC; type: cell-based, methicillin-resistant S. aureus; conditions: Staphylococcus aureus, read-out: MIC MRSA 63718
[6] = system: Mycobacterium smegmatis ATCC 700084; assay: Antimycobacterial screening, broth dilution MIC; type: cell-based; conditions: Mycolicibacterium smegmatis, ATCC700084, 72 h, read-out: MIC M. smegmatis
VRE 725B = assay: Antibacterial screening, broth microdilution MIC; type: cell-based, vancomycin-resistant E. faecalis; conditions: Enterococcus, vanA isolate, 24 h at 37 °C, read-out: MIC VRE 725B
in vitro = conditions: human
Description: Cytotoxicity of the compounds was determined using an LDH assay kit (Roche Diagnostics, Mannheim, Germany) as described previously. Human monocytic leukemia THP-1 cells (European Collection of Cell Cultures, Salisbury, UK) were exposed for 24 h at 37 °C to various compound concentrations ranging from 0.37 to 30 μM in RPMI 1640 medium. For LDH assays, cells were seeded into 96-well plates (5×10^4 cells/well in 100 μL culture medium) in triplicate in serum-free RPMI 1640 medium and measurements were taken 24 h after the treatment with the compounds. The maximum concentration of DMSO (Sigma) in the assays never exceeded 0.1 %. […] The median lethal dose values, LC50, were deduced through the production of a dose-response curve. All data from three independent experiments were evaluated using GraphPad Prism 5.00 software (GraphPadSoftware, San Diego, CA, USA).

[7] = Lipophilicity determination by RP-HPLC (log k, log D); type: physicochemical; conditions: for log D6.5: RP-HPLC C18, MeOH 72 % / acetate-buffered saline pH 6.5; for log D7.4: RP-HPLC C18, MeOH 72 % / acetate-buffered saline pH 7.4; for log k (logarithm of the capacity factor): RP-HPLC C18, MeOH 72 % / water 28 %
How it was run: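 Isocratic RP-HPLC on a C18 column at 40 °C, UV detection at 210 nm, dead time from KI. Log k used MeOH/H2O 72:28, log D used MeOH/acetate-buffered saline (pH 7.4 or 6.5) 72:28. k and D were calculated as (tR–tD)/tD, three replicates.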

S. aureus ATCC 29213 = assay: Antibacterial screening, broth microdilution MIC; type: cell-based; conditions: Staphylococcus aureus, ATCC29213; ATCC 29213, 24 h at 37 °C; read-out: MIC S. aureus
[8] = system: human monocytic leukemia THP-1 cells; conditions: cited from earlier work
MRSA 63718 [9] = system: MRSA 63718; set-up: method as in PMID 25692135; conditions: cited from earlier work
[10] = ATCC29212, ATCC 29212, 24 h at 37 °C
[11] = clinical isolate, 24 h at 37 °C

Compound	MIC ([2]; DSM 44162, 14 days at 37 °C) [µM]	MIC [3, 10] [µM]	MIC [4] [µM]	MIC (VRE 368; vanA isolate, 24 h at 37 °C) [µM]	MIC (E. coli ATCC 25922) [µM]	MIC (VRE 342B) [µM]	MIC (MRSA SA 3202) [µM]	MIC (VRE 725B) [µM]	CC50 at 24 h (in vitro) [µM]	log D6.5 [7]	log D7.4 [7]	log k (logarithm of the capacity factor) [7]	MIC (S. aureus ATCC 29213) [µM]	MIC (MRSA SA 630; [11]) [µM]	CC50 [8] [µM]	MIC (MRSA 63718 [5]; [11]) [µM]	MIC ([6]; ATCC 700084, 3 days at 37 °C) [µM]	also measured
O=C(Nc1ccc(Br)cc1)c1c(O)ccc2ccccc12 [N-(4-bromophenyl)-2-hydroxynaphthalene-1-carboxamide]																		MIC M. kansasii [1]: 93 µM (≈ 31.8 µg/mL)
COc1cc(NC(=O)c2c(O)ccc3ccccc23)cc(OC)c1 [Compound 6, N-(3,5-Dimethoxyphenyl)-2-hydroxynaphthalene-1-carboxamide]	98.9 (≈ 32 µg/mL)	792 (≈ 256 µg/mL)	396 (≈ 128 µg/mL)	792 (≈ 256 µg/mL)	792 (≈ 256 µg/mL)	792 (≈ 256 µg/mL)	198 (≈ 64 µg/mL)	792 (≈ 256 µg/mL)	> 30	0.0411	0.0490	0.0388	198 (≈ 64 µg/mL)					MIC (MRSA SA 630; 24 h): 396 µM (≈ 128 µg/mL); MIC (MRSA 63718 [5]; 24 h): 396 µM (≈ 128 µg/mL); MIC [6]: 396 µM (≈ 128 µg/mL)
O=C(Nc1ccc([N+](=O)[O-])cc1)c1c(O)ccc2ccccc12 [Compound 26, 2-hydroxy-N-(4-nitrophenyl)naphthalene-1-carboxamide]	415 (≈ 128 µg/mL)	415 (≈ 128 µg/mL)	104 (≈ 32.1 µg/mL)	830 (≈ 256 µg/mL)	830 (≈ 256 µg/mL)	830 (≈ 256 µg/mL)		830 (≈ 256 µg/mL)		0.0862	0.0879	0.0984	> 830	415 (≈ 128 µg/mL)	2.5 ± 0.1	830 (≈ 256 µg/mL)	208 (≈ 64.1 µg/mL)	
Cc1cc(C)cc(NC(=O)c2c(O)ccc3ccccc23)c1 [Compound 13, N-(3,5-Dimethylphenyl)-2-hydroxynaphthalene-1-carboxamide]	110 (≈ 32 µg/mL)	879 (≈ 256 µg/mL)	439 (≈ 128 µg/mL)	879 (≈ 256 µg/mL)	879 (≈ 256 µg/mL)	879 (≈ 256 µg/mL)	54.9 (≈ 16 µg/mL)	879 (≈ 256 µg/mL)	> 30	0.3429	0.3480	0.3367	54.9 (≈ 16 µg/mL)	54.9 (≈ 16 µg/mL)		54.9 (≈ 16 µg/mL)	220 (≈ 64.1 µg/mL)	
O=C(Nc1ccc([N+](=O)[O-])c(C(F)(F)F)c1)c1c(O)ccc2ccccc12 [Compound 27, 2-Hydroxy-N-[4-nitro-3-(trifluoromethyl)phenyl]naphthalene-1-carboxamide]	21.3 (≈ 8.01 µg/mL)	21.3 (≈ 8.01 µg/mL)	85 (≈ 32 µg/mL)	21.3 (≈ 8.01 µg/mL)	680 (≈ 256 µg/mL)	42.5 (≈ 16 µg/mL)	1.33 (≈ 0.5 µg/mL)	42.5 (≈ 16 µg/mL)	> 30	0.3282	0.3220		0.332 (≈ 0.125 µg/mL)	1.33 (≈ 0.5 µg/mL)		1.33 (≈ 0.5 µg/mL)	21.3 (≈ 8.01 µg/mL)	
Cc1ccc(C(F)(F)F)cc1NC(=O)c1c(O)ccc2ccccc12 [Compound 22, 2-Hydroxy-N-[2-methyl-5-(trifluoromethyl)phenyl]naphthalene-1-carboxamide]			46.3 (≈ 16 µg/mL)		23.2 (≈ 8.01 µg/mL)	92.6 (≈ 32 µg/mL)	2.9 (≈ 1 µg/mL)	92.6 (≈ 32 µg/mL)	> 30	0.3444	0.3440		2.9 (≈ 1 µg/mL)	2.9 (≈ 1 µg/mL)		5.79 (≈ 2 µg/mL)	23.2 (≈ 8.01 µg/mL)	MIC [2]: 46.3 µM (≈ 16 µg/mL); MIC ([3]; ATCC29212, 24 h): 46.3 µM (≈ 16 µg/mL); MIC (VRE 368; 24 h): 46.3 µM (≈ 16 µg/mL)
O=C(Nc1cccc([N+](=O)[O-])c1)c1c(O)ccc2ccccc12 [Compound 25, 2-hydroxy-N-(3-nitrophenyl)naphthalene-1-carboxamide]		830 (≈ 256 µg/mL)	104 (≈ 32.1 µg/mL)	830 (≈ 256 µg/mL)	830 (≈ 256 µg/mL)	830 (≈ 256 µg/mL)	208 (≈ 64.1 µg/mL)	830 (≈ 256 µg/mL)		0.3462	0.3058	0.4882	208 (≈ 64.1 µg/mL)	208 (≈ 64.1 µg/mL)	> 20	26 (≈ 8.02 µg/mL)	208 (≈ 64.1 µg/mL)	MIC [2]: 104 µM (≈ 32.1 µg/mL)
O=C(Nc1ccc(C(F)(F)F)cc1)c1c(O)ccc2ccccc12 [2-hydroxy-N-(4-trifluoromethylphenyl)naphthalene-1-carboxamide]																		MIC M. kansasii [1]: 23 µM (≈ 7.62 µg/mL)
O=C(Nc1ccccc1[N+](=O)[O-])c1c(O)ccc2ccccc12 [Compound 24, 2-hydroxy-N-(2-nitrophenyl)naphthalene-1-carboxamide]	51.9 (≈ 16 µg/mL)	830 (≈ 256 µg/mL)	104 (≈ 32.1 µg/mL)	830 (≈ 256 µg/mL)	830 (≈ 256 µg/mL)	830 (≈ 256 µg/mL)	51.9 (≈ 16 µg/mL)	830 (≈ 256 µg/mL)		0.3077	0.3103	0.3033	26 (≈ 8.02 µg/mL)		> 20	415 (≈ 128 µg/mL)	208 (≈ 64.1 µg/mL)	
CN[C@H](CC(C)C)C(=O)N[C@H]1C(=O)N[C@@H](CC(N)=O)C(=O)N[C@H]2C(=O)N[C@H]3C(=O)N[C@H](C(=O)N[C@H](C(=O)O)c4cc(O)cc(O)c4-c4cc3ccc4O)[C@H](O)c3ccc(c(Cl)c3)Oc3cc2cc(c3O[C@@H]2O[C@H](CO)[C@@H](O)[C@H](O)[C@H]2O[C@H]2C[C@](C)(N)[C@H](O)[C@H](C)O2)Oc2ccc(cc2Cl)[C@H]1O [vancomycin]																		MIC of vancomycin (MRSA 63718 [9]): 2 µg/mL
